Measurements taken from the supplement of paper PMC6045584.
± gives the standard deviation of the averaged measurements.

What was measured:
[1] = compound: C[C@H](CN(C)C)Oc1nc(Nc2cc3cccc(Cl)c3cn2)cnc1C#N; assay: surviving fraction relative to DMSO-only wells; higher = less growth inhibition; conditions: exposure time: 5 days
How it was run: (§1)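 Surviving fraction is CellTiter-Glo luminescence divided by the median of wells given DMSO only. For this, log-phase tumour cell lines went into 384-well plates at 250–500 cells per well and, 24 hours later, into five days of continuous inhibitor exposure at 0.5, 1, 5, 10, 50, 100, 500 and 1000 nM. Lines were screened three times and retained only if replicate Pearson r >0.7 and median Z' >0.3.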

[2] = compound: COc1ccc(-c2cc3c(C)nc(N)nc3n([C@H]3CC[C@H](OCCO)CC3)c2=O)cn1; assay: as above; conditions: exposure time: 5 days
How it was run: as §1

Row | Test System | surviving fraction ([1]; 0.5 nM) | surviving fraction ([1]; 1 nM) | surviving fraction ([1]; 5 nM) | surviving fraction ([1]; 10 nM) | surviving fraction ([1]; 50 nM) | surviving fraction ([1]; 100 nM) | surviving fraction ([1]; 500 nM) | surviving fraction ([1]; 1000 nM) | surviving fraction ([2]; 0.5 nM) | surviving fraction ([2]; 1 nM) | surviving fraction ([2]; 5 nM) | surviving fraction ([2]; 10 nM) | surviving fraction ([2]; 50 nM) | surviving fraction ([2]; 100 nM) | surviving fraction ([2]; 500 nM) | surviving fraction ([2]; 1000 nM)
1 | CCK81 LARGE INTESTINE | 0.681 ± 0.1 | 0.819 ± 0.097 | 0.726 ± 0.09 | 0.739 ± 0.029 | 0.774 ± 0.15 | 0.52 ± 0.084 | 0.349 ± 0.069 | 0.374 ± 0.049 |  |  |  |  |  |  |  | 
2 | G292 BONE | 1.06 ± 0.053 | 1.02 ± 0.012 | 1.05 ± 0.021 | 1.05 ± 0.075 | 1.107 ± 0.0061 | 1.08 ± 0.061 | 0.648 ± 0.046 | 0.43 ± 0.028 | 0.951 ± 0.026 | 0.971 ± 0.037 | 0.853 ± 0.042 | 0.78 ± 0.011 | 0.422 ± 0.027 | 0.305 ± 0.013 | 0.124 ± 0.003 | 0.0955 ± 0.001
3 | HCC38 BREAST | 1.25 ± 0.22 | 1.32 ± 0.18 | 1.36 ± 0.28 | 1.3 ± 0.14 | 0.989 ± 0.06 | 0.821 ± 0.23 | 0.125 ± 0.028 | 0.0697 ± 0.013 | 0.974 ± 0.14 | 1.13 ± 0.17 | 1.21 ± 0.02 | 1.08 ± 0.069 | 1.14 ± 0.14 | 1.01 ± 0.34 | 0.409 ± 0.083 | 0.223 ± 0.046
4 | HCC70 BREAST | 1.07 ± 0.06 | 1.11 ± 0.14 | 1.01 ± 0.038 | 1.09 ± 0.034 | 1.1 ± 0.045 | 1.14 ± 0.025 | 0.639 ± 0.086 | 0.191 ± 0.021 | 1.01 ± 0.091 | 1.02 ± 0.092 | 1.06 ± 0.097 | 0.98 ± 0.026 | 0.623 ± 0.051 | 0.346 ± 0.011 | 0.111 ± 0.036 | 0.056 ± 0.0061
5 | HMLE3 BREAST | 1 ± 0.081 | 0.949 ± 0.035 | 1.01 ± 0.04 | 0.998 ± 0.056 | 1.07 ± 0.069 | 1.07 ± 0.1 | 0.93 ± 0.076 | 0.735 ± 0.025 | 0.914 ± 0.04 | 0.918 ± 0.061 | 0.858 ± 0.12 | 0.83 ± 0.035 | 0.611 ± 0.043 | 0.446 ± 0.024 | 0.121 ± 0.01 | 0.0777 ± 0.0064
6 | HMT3552 BREAST | 0.984 ± 0.029 | 1.04 ± 0.043 | 1.08 ± 0.093 | 1.04 ± 0.036 | 1.22 ± 0.018 | 1.19 ± 0.064 | 0.121 ± 0.016 | 0.103 ± 0.01 | 0.941 | 0.913 | 0.883 | 0.813 | 0.535 | 0.279 | 0.09 | 0.077
7 | HS578T BREAST | 0.988 ± 0.17 | 1.02 ± 0.11 | 0.972 ± 0.14 | 1.04 ± 0.11 | 1.05 ± 0.041 | 0.796 ± 0.14 | 0.216 ± 0.028 | 0.191 ± 0.02 | 0.864 ± 0.19 | 0.946 ± 0.1 | 0.811 ± 0.047 | 0.759 ± 0.12 | 0.547 ± 0.048 | 0.403 ± 0.028 | 0.17 ± 0.008 | 0.111 ± 0.004
